Measurements: the supplement of paper PMC10307832

Assays:
Assay in all cases: relative viability (nuclei count vs DMSO), 5 days (fraction); higher = more cells survive
ABC-1 = test system: ABC-1
Procedure, shortened: (§1)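 Lung cancer cell lines in 1536-well plates got either a single drug or a fixed anchor-drug dose together with five library-drug doses (not always all listed) in √10 steps, by pin tool, on the day after seeding. Nuclei were counted after 5 days, and relative viability is the treated-to-vehicle ratio of nuclei counts. Values are medians of duplicate plates.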

CAL-12T = test system: CAL-12T
Procedure, shortened: as §1

COR-L 105 = test system: COR-L 105
Procedure, shortened: as §1

ChaGo-K-1 = test system: ChaGo-K-1
Procedure, shortened: as §1

EMC-BAC-2 = test system: EMC-BAC-2
Procedure, shortened: as §1

EPLC-272H = test system: EPLC-272H
Procedure, shortened: as §1

HCC-15 = test system: HCC-15
Procedure, shortened: as §1

HCC-78 = test system: HCC-78
Procedure, shortened: as §1

HOP-62 = test system: HOP-62
Procedure, shortened: as §1

LXF-289 = test system: LXF-289
Procedure, shortened: as §1

NCI-H1666 = test system: NCI-H1666
Procedure, shortened: as §1

NCI-H1755 = test system: NCI-H1755
Procedure, shortened: as §1

NCI-H1915 = test system: NCI-H1915
Procedure, shortened: as §1

NCI-H1975 = test system: NCI-H1975
Procedure, shortened: as §1

NCI-H1993 = test system: NCI-H1993
Procedure, shortened: as §1

NCI-H2023 = test system: NCI-H2023
Procedure, shortened: as §1

NCI-H2085 = test system: NCI-H2085
Procedure, shortened: as §1

NCI-H2126 = test system: NCI-H2126
Procedure, shortened: as §1

NCI-H3122 = test system: NCI-H3122
Procedure, shortened: as §1

NCI-H322M = test system: NCI-H322M
Procedure, shortened: as §1

NCI-H358 = test system: NCI-H358
Procedure, shortened: as §1

NCI-H441 = test system: NCI-H441
Procedure, shortened: as §1

UMC-11 = test system: UMC-11
Procedure, shortened: as §1

Oc1nc(-c2ccc(C(F)(F)F)cc2)nc2c1CSCC2 [XAV939] + CS(=O)(=O)N1CCN(Cc2cc3nc(-c4cccc5[nH]ncc45)nc(N4CCOCC4)c3s2)CC1 [Pictilisib] (partner 1 µM)
relative viability (ABC-1; first compound 0.08 µM): 0.759
relative viability (ABC-1; first compound 0.253 µM): 0.581
relative viability (ABC-1; first compound 0.8 µM): 0.602
relative viability (ABC-1; first compound 2.53 µM): 0.348
relative viability (CAL-12T; first compound 0.08 µM): 0.433
relative viability (CAL-12T; first compound 0.253 µM): 0.33
relative viability (CAL-12T; first compound 0.8 µM): 0.373
relative viability (CAL-12T; first compound 2.53 µM): 0.34
relative viability (COR-L 105; first compound 0.08 µM): 0.371
relative viability (COR-L 105; first compound 0.253 µM): 0.304
relative viability (COR-L 105; first compound 0.8 µM): 0.349
relative viability (COR-L 105; first compound 2.53 µM): 0.347
relative viability (ChaGo-K-1; first compound 0.08 µM): 0.629
relative viability (ChaGo-K-1; first compound 0.253 µM): 0.598
relative viability (ChaGo-K-1; first compound 0.8 µM): 0.729
relative viability (ChaGo-K-1; first compound 2.53 µM): 0.648
relative viability (EMC-BAC-2; first compound 0.08 µM): 0.56
relative viability (EMC-BAC-2; first compound 0.253 µM): 0.487
relative viability (EMC-BAC-2; first compound 0.8 µM): 0.416
relative viability (EMC-BAC-2; first compound 2.53 µM): 0.314
relative viability (EPLC-272H; first compound 0.08 µM): 0.347
relative viability (EPLC-272H; first compound 0.253 µM): 0.36
relative viability (EPLC-272H; first compound 0.8 µM): 0.302
relative viability (EPLC-272H; first compound 2.53 µM): 0.323
relative viability (HCC-15; first compound 0.08 µM): 0.858
relative viability (HCC-15; first compound 0.253 µM): 0.632
relative viability (HCC-15; first compound 0.8 µM): 0.736
relative viability (HCC-15; first compound 2.53 µM): 0.755
relative viability (HCC-78; first compound 0.08 µM): 0.216
relative viability (HCC-78; first compound 0.253 µM): 0.206
relative viability (HCC-78; first compound 0.8 µM): 0.161
relative viability (HCC-78; first compound 2.53 µM): 0.213
relative viability (HOP-62; first compound 0.08 µM): 1.04
relative viability (HOP-62; first compound 0.253 µM): 0.62
relative viability (HOP-62; first compound 0.8 µM): 0.596
relative viability (HOP-62; first compound 2.53 µM): 0.672
relative viability (LXF-289; first compound 0.08 µM): 0.872
relative viability (LXF-289; first compound 0.253 µM): 0.731
relative viability (LXF-289; first compound 0.8 µM): 0.764
relative viability (LXF-289; first compound 2.53 µM): 0.597
relative viability (NCI-H1666; first compound 0.08 µM): 0.378
relative viability (NCI-H1666; first compound 0.253 µM): 0.333
relative viability (NCI-H1666; first compound 0.8 µM): 0.279
relative viability (NCI-H1666; first compound 2.53 µM): 0.411
relative viability (NCI-H1755; first compound 0.08 µM): 0.456
relative viability (NCI-H1755; first compound 0.253 µM): 0.353
relative viability (NCI-H1755; first compound 0.8 µM): 0.413
relative viability (NCI-H1755; first compound 2.53 µM): 0.388
relative viability (NCI-H1915; first compound 0.08 µM): 1.11
relative viability (NCI-H1915; first compound 0.253 µM): 0.967
relative viability (NCI-H1915; first compound 0.8 µM): 0.941
relative viability (NCI-H1915; first compound 2.53 µM): 0.921
relative viability (NCI-H1975; first compound 0.08 µM): 0.258
relative viability (NCI-H1975; first compound 0.253 µM): 0.263
relative viability (NCI-H1975; first compound 0.8 µM): 0.248
relative viability (NCI-H1975; first compound 2.53 µM): 0.207
relative viability (NCI-H1993; first compound 0.8 µM): 0.911
relative viability (NCI-H1993; first compound 2.53 µM): 0.7
relative viability (NCI-H2023; first compound 0.08 µM): 0.177
relative viability (NCI-H2023; first compound 0.253 µM): 0.187
relative viability (NCI-H2023; first compound 0.8 µM): 0.176
relative viability (NCI-H2023; first compound 2.53 µM): 0.158
relative viability (NCI-H2085; first compound 0.08 µM): 0.388
relative viability (NCI-H2085; first compound 0.253 µM): 0.412
relative viability (NCI-H2085; first compound 0.8 µM): 0.445
relative viability (NCI-H2085; first compound 2.53 µM): 0.355
relative viability (NCI-H2126; first compound 0.08 µM): 0.477
relative viability (NCI-H2126; first compound 0.253 µM): 0.448
relative viability (NCI-H2126; first compound 0.8 µM): 0.473
relative viability (NCI-H2126; first compound 2.53 µM): 0.406
relative viability (NCI-H3122; first compound 0.08 µM): 0.667
relative viability (NCI-H3122; first compound 0.253 µM): 0.533
relative viability (NCI-H3122; first compound 0.8 µM): 0.568
relative viability (NCI-H3122; first compound 2.53 µM): 0.381
relative viability (NCI-H322M; first compound 0.08 µM): 0.572
relative viability (NCI-H322M; first compound 0.253 µM): 0.491
relative viability (NCI-H322M; first compound 0.8 µM): 0.541
relative viability (NCI-H322M; first compound 2.53 µM): 0.439
relative viability (NCI-H358; first compound 0.08 µM): 0.306
relative viability (NCI-H358; first compound 0.253 µM): 0.232
relative viability (NCI-H358; first compound 0.8 µM): 0.336
relative viability (NCI-H358; first compound 2.53 µM): 0.277
relative viability (NCI-H441; first compound 0.08 µM): 0.605
relative viability (NCI-H441; first compound 0.253 µM): 0.461
relative viability (NCI-H441; first compound 0.8 µM): 0.517
relative viability (NCI-H441; first compound 2.53 µM): 0.603
relative viability (UMC-11; first compound 0.08 µM): 0.733
relative viability (UMC-11; first compound 0.8 µM): 0.752
relative viability (UMC-11; first compound 2.53 µM): 0.712
